Results on 16 compounds are retold here after paper PMC12751025, “α‑Aminoboronic Acid Moieties in Boro Dipeptides Modulate Proteasome Subunit Selectivity and Provide Access to Compounds with Potent Anticancer and Anti-Inflammatory Activity” (Journal of Medicinal Chemistry, 2025).

Molecules are shown by their SMILES. “And” between values parts separate entries of the source, which are not always exact repeats. Equal values may be shown once. Read-outs that look alike come from different tables or passages of the source.

Assay [1] concerns the target β5i subunit of human iCP (Homo sapiens, UniProt P20618+P28062). Kind of assay: IC50 determination with fluorogenic substrate Ac-ANW-AMC. Particulars: for IC50: IC50 β5i.
Description: (§1) The measurements of the residual activity of control compounds were carried out at final compound concentrations of 1 μM in the assay buffer (50 mM Tris-HCl, 0.5 mM ethylenediaminetetraacetic acid (EDTA), pH 7.4). Stock solutions of the compounds were prepared in DMSO. To the 35 μL of solution of the compound in the buffer, 35 μL of 0.4 nM human iCP (South Bay Bio, San Jose, CA, USA) or human cCP (Boston Biochem, Inc., Cambridge, MA, USA) was added. For assays evaluating the activity of β2c and β2i, the buffer was modified by adding the proteasomal activator PA28β (Boston Biochem, Inc., Cambridge, MA, USA) at a final concentration of 6 nM. […] The substrates used were acetyl-Nle-Pro-Nle-Asp-7-amino-4-methylcoumarin (Ac-nLPnLD-AMC, Bachem, Bubendorf, Switzerland) for β1c, acetyl-Pro-Ala-Leu-7-amino-4-methylcoumarin (Ac-PAL-AMC, Boston Biochem, Inc., Cambridge, MA, USA) for β1i, acetyl-Arg-Leu-Arg-7-amino-4-methylcoumarin (Ac-RLR-AMC, Bachem, Bubendorf, Switzerland) for β2c and β2i, acetyl-Trp-Leu-Ala-7-amino-4-methylcoumarin (Ac-WLA-AMC, Bachem, Bubendorf, Switzerland) for β5c, and acetyl-Ala-Asn-Trp-7-amino-4-methylcoumarin (Ac-ANW-AMC, Bachem, Bubendorf, Switzerland) for β5i. Progress of the reaction was measured using a BioTek Synergy HT microplate reader, monitoring fluorescence at 460 nm (excitation at 360 nm) for 60 min at 37 °C. The initial linear ranges were used to calculate the reaction velocity and determine the residual activity.
(§2) The final assay mixtures contained 0.4 nM human iCP or cCP in assay buffer (50 mM Tris-HCl, 0.5 mM EDTA, pH 7.4, addition of PA28β for β2c and β2i subunits). […] After incubation at 37 °C for 30 min, the reaction was initiated by the addition of the substrate Ac-nLPnLD-AMC for β1c, Ac-PAL-AMC for β1i, Ac-RLR-AMC for β2c and β2i, Ac-WLA-AMC for β5c, and Ac-ANW-AMC for β5i. Fluorescence was monitored at 460 nm (excitation at 360 nm) for 60 min at 37 °C. The reaction progress was recorded and the initial linear phases were used to determine the velocity. The IC50 values were calculated using GraphPad Prism software (GraphPad Software, San Diego, CA, USA), and the results represent the mean values of at least three independent determinations.
The target of assay [2] is β1i subunit of human iCP (Homo sapiens, UniProt P28065+P40306). Description: IC50 determination with subunit-specific fluorogenic substrate Ac-PAL-AMC. The note with it: IC50 β1i.
Description: as §1, §2
In assay [3] the target is T1, β5c subunit of human cCP (Homo sapiens, UniProt P20618+P28074).
T1 construct: purchased Boston Biochem, Inc
Kind of assay: IC50 determination with fluorogenic substrate Ac-WLA-AMC. The class given is biochemical.
Description: as §1, §2

Assay [4] addresses T2, β1c subunit of human cCP (Homo sapiens, UniProt P28072+Q99436).
T2 construct: purchased Boston Biochem, Inc
Description: IC50 determination with subunit-specific fluorogenic substrate Ac-nLPnLD-AMC. The assay is classed as biochemical.
Description: as §1, §2

For assay [5], the target named is β2i subunit of human iCP (Homo sapiens, UniProt P40306+P49720). Description: IC50 determination with fluorogenic substrate Ac-RLR-AMC (PA28β added).
Description: as §1, §2
Assay [6] relates to LPS-stimulated PBMCs. Description: Cytokine secretion, Cytometric Bead Array. The note with it: 250 nM; 1 h pretreatment, LPS 1 μg/mL, 24 h; IL-1, IL-6, IL-8, IL-10, TNF-α. The class given is cell-based, human. The protocol: PBMCs (1.5 × 10^6/mL) were plated in culture media in 96-well round-bottom plates. After a 60 min treatment with compounds at 37 °C and 5% CO2, cells were stimulated with LPS (Escherichia coli, O111:B4, 1 μg/mL, Sigma) for 24 h. Supernatants were then collected and analyzed for cytokine release by Human Inflammatory Cytokine Cytometric Bead Array (BD Biosciences, New Jersey, USA).

Assay [7] relates to all subunits of the human cCP and iCP. Description: Subunit inhibition profile and preference across cCP and iCP subunits. Particulars: for fold lower potency on the cCP counterparts of β1i and β5i: β1c, β5c vs β1i. The class given is biochemical.
Description: as §2
The target of assay [8] is T3, β2c subunit of human cCP (Homo sapiens, UniProt P49720+Q99436).
T3 construct: purchased Boston Biochem, Inc
Description: IC50 determination with fluorogenic substrate Ac-RLR-AMC (PA28β added). The assay is classed as biochemical.
Description: Stock solutions of the compounds were prepared in DMSO. To the 35 μL of solution of the compound in the buffer, 35 μL of 0.4 nM human iCP (South Bay Bio, San Jose, CA, USA) or human cCP (Boston Biochem, Inc., Cambridge, MA, USA) was added. For assays evaluating the activity of β2c and β2i, the buffer was modified by adding the proteasomal activator PA28β (Boston Biochem, Inc., Cambridge, MA, USA) at a final concentration of 6 nM. […] The substrates used were acetyl-Nle-Pro-Nle-Asp-7-amino-4-methylcoumarin (Ac-nLPnLD-AMC, Bachem, Bubendorf, Switzerland) for β1c, acetyl-Pro-Ala-Leu-7-amino-4-methylcoumarin (Ac-PAL-AMC, Boston Biochem, Inc., Cambridge, MA, USA) for β1i, acetyl-Arg-Leu-Arg-7-amino-4-methylcoumarin (Ac-RLR-AMC, Bachem, Bubendorf, Switzerland) for β2c and β2i, acetyl-Trp-Leu-Ala-7-amino-4-methylcoumarin (Ac-WLA-AMC, Bachem, Bubendorf, Switzerland) for β5c, and acetyl-Ala-Asn-Trp-7-amino-4-methylcoumarin (Ac-ANW-AMC, Bachem, Bubendorf, Switzerland) for β5i. Progress of the reaction was measured using a BioTek Synergy HT microplate reader, monitoring fluorescence at 460 nm (excitation at 360 nm) for 60 min at 37 °C. The initial linear ranges were used to calculate the reaction velocity and determine the residual activity.
as §2

The test system of assay [9] is β2c. Particulars: in parentheses in Table S2; SI reference list; read-out: IC50 β2c, previously published data; cited from earlier work.
Assay [10] relates to β2i. The note with it: in parentheses in Table S2; SI reference list; read-out: IC50 β2i, previously published data; cited from earlier work.
Assay [11] relates to β5i. Particulars: in parentheses in Table S2; SI reference list; read-out: IC50 β5i, previously published data; cited from earlier work.
Assay [12] has as its system β1i. Particulars: in parentheses in Table S2; SI reference list; read-out: IC50 β1i, previously published data; cited from earlier work.
Assay [13] concerns β1c. Particulars: in parentheses in Table S2, SI reference list, cited from earlier work.
Assay [14] has as its system β5c. The note with it: in parentheses in Table S2; SI reference list; read-out: IC50 β5c, previously published data; cited from earlier work.
[15] abbreviates: human iCP, mean of at least three experiments, NA: not active at 50 μM.
Setting [16] is: human cCP, mean of at least three experiments, NA: not active at 50 μM.
[17] abbreviates: read-out: IC50 β1c, previously published data.

As a reminder, the IC50 is the concentration that inhibits the measured activity by half. `O=C(N[C@@H](Cc1ccccc1)C(=O)N[C@H](B(O)O)c1ccccc1)c1cnccn1` [5a, ((R)-Phenyl((S)-3-Phenyl-2-(pyrazine-2-carboxamido)propanamido)methyl)boronic Acid]: the IC50 came to 0.22 µM in [1] (setting [15]), 0.746 µM in assay [2] (setting [15]) and 12.8 µM in [3] (setting [16]).

As to `Cc1ccc([C@H](NC(=O)[C@H](Cc2ccccc2)NC(=O)c2cnccn2)B(O)O)cc1` [5b, ((R)-((S)-3-Phenyl-2-(pyrazine-2-carboxamido)propanamido)(p-tolyl)methyl)boronic Acid], the IC50 stood at 0.032 µM in [1] (setting [15]); 0.545 µM in [4] (setting [16]); 0.042 µM in assay [2] (setting [15]); 9.8 µM in assay [5]; 0.712 µM in assay [3] (setting [16]). For the same compound, in [6], the “Effect on secretion of cytokines in LPS-stimulated PBMCs” value (shortened to “Effect on secretion of cytokines”) is recorded as “significantly diminished ability to affect cytokine release”. For the same compound, the “fold lower potency on the cCP counterparts of β1i and β5i” value (“fold lower potency … of β1i and β5i” for short) in assay [7] is 10–20 fold.

As for `O=C(N[C@@H](Cc1ccccc1)C(=O)N[C@H](B(O)O)c1ccc(F)cc1)c1cnccn1` [5c, ((R)-(4-Fluorophenyl)((S)-3-phenyl-2-(pyrazine-2-carboxamido)propanamido)methyl)boronic Acid], the IC50 in assay [1] (setting [15]) was 0.032 µM; in assay [4] (setting [16]), 0.526 µM; in assay [2] (setting [15]), 0.038 µM; in [3] (setting [16]) it was 0.225 µM. Further, in assay [6], the “Effect on secretion of cytokines” value is “significantly diminished ability to affect cytokine release”. Besides, the “fold lower potency … of β1i and β5i” value in assay [7] was 10–20 fold.

In the case of `COc1ccc([C@H](NC(=O)[C@H](Cc2ccccc2)NC(=O)c2cnccn2)B(O)O)cc1` [5e, ((R)-(4-Methoxyphenyl)((S)-3-phenyl-2-(pyrazine-2-carboxamido)propanamido)methyl)boronic Acid], the IC50 in assay [8] (setting [16]) was found to be 79 µM; in assay [1] (setting [15]), 0.015 µM; in assay [4] (setting [16]), 1.34 µM; in assay [2] (setting [15]) it was 0.04 µM; in assay [5] it was 10.4 µM; in assay [3] (setting [16]), 0.402 µM. Besides, in [7], the “fold lower potency … of β1i and β5i” value is on record as 10–20 fold.

As for `CCOC(=O)c1cccc([C@H](NC(=O)[C@H](Cc2ccccc2)NC(=O)c2cnccn2)B(O)O)c1` [5f, ((R)-(3-(Ethoxycarbonyl)phenyl)((S)-3-phenyl-2-(pyrazine-2-carboxamido)propanamido)methyl)boronic Acid], the IC50 in assay [1] (setting [15]) stood at 1.3 µM; in [2] (setting [15]), 22.4 µM; in assay [3] (setting [16]), 3.3 µM.

Regarding `O=C(N[C@@H](Cc1ccccc1)C(=O)N[C@H](B(O)O)c1ccc2c(c1)OCO2)c1cnccn1` [5g, ((R)-Benzo[d][1,3]dioxol-5-yl((S)-3-phenyl-2-(pyrazine-2-carboxamido)propanamido)methyl)boronic Acid], the IC50 came out at 45 µM in assay [8] (setting [16]); 0.018 µM in [1] (setting [15]); 0.315 µM in assay [4] (setting [16]); 0.201 µM in [2] (setting [15]); 8.6 µM in assay [5]; 0.183 µM in assay [3] (setting [16]). Further, in assay [1], the “IC50 for β5i, fold lower than for β1i, β1c, and β5c” value is given as 10 fold.

Turning to `O=C(N[C@@H](Cc1ccccc1)C(=O)N[C@@H](Cc1ccccc1)B(O)O)c1cnccn1` [5i, ((R)-2-Phenyl-1-((S)-3-phenyl-2-(pyrazine-2-carboxamido)propanamido)ethyl)boronic Acid], the IC50 in assay [8] (setting [16]) came to 4.9 µM; in assay [1] (setting [15]) it was 0.017 µM; in assay [4] (setting [16]), 0.235 µM; in [2] (setting [15]), 0.054 µM; in assay [5], 3.4 µM; in assay [3] (setting [16]), 0.054 µM.

For `CC[C@H](NC(=O)[C@H](Cc1ccccc1)NC(=O)c1cnccn1)B(O)O` [5j, ((R)-1-((S)-3-phenyl-2-(pyrazine-2-carboxamido)propanamido)propyl)boronic Acid], the IC50 in assay [8] (setting [16]) is 3.4 µM; in assay [1] (setting [15]), 0.019 µM; in assay [4] (setting [16]), 0.021 µM; in assay [2] (setting [15]) it was 0.002 µM; in assay [5], 1.28 µM; in [3] (setting [16]) it was 0.011 µM.

`O=C(N[C@@H](Cc1ccccc1)C(=O)N[C@H](B(O)O)C1CC1)c1cnccn1` [5k, ((R)-Cyclopropyl((S)-3-phenyl-2-(pyrazine-2-carboxamido)propanamido)methyl)boronic Acid]: the 50% inhibitory concentration (IC50) turned out to be 0.44 µM in [8] (setting [16]); 0.009 µM in [1] (setting [15]); 0.827 µM in assay [4] (setting [16]); 0.172 µM in [2] (setting [15]); 0.499 µM in [5]; 0.005 µM in assay [3] (setting [16]). The “fold lower potency on β1c and β1i” value in assay [7] (compared with bortezomib) is “approximately 80 fold”.

As to `CC(C)(C)ONC(=O)C[C@H](NC(=O)CCc1ccccc1)C(=O)N[C@@H](Cc1ccc(F)cc1)C(=O)NCc1cccc2ccccc12` [DPLG3], the IC50 in [9] is over 33.3 µM; in assay [10] it was over 33.3 µM; in [11], 0.0045 µM; in assay [2] (own assay), over 1 µM; in assay [12], over 33.3 µM; in assay [13] (setting [17]), over 33.3 µM.

Regarding `C[C@]1(C(=O)[C@H](Cc2ccccc2)NC(=O)[C@H](CO)NC(=O)c2cccc(=O)[nH]2)CO1` [KZR-504], the IC50 in assay [9] was over 250 µM; in assay [8] (own assay) it was over 1 µM; in assay [10], over 250 µM; in assay [11] it was 4.3 µM; in assay [14], 6.9 µM; in assay [2] (own assay), 0.059 ± 0.011 µM. Also, the IC50 in assay [5] was over 1 µM; in assay [12], 0.051 µM.

`COc1ccc([C@@H](O)[C@H](NC(=O)[C@H](C)NC(=O)CN2CCOCC2)C(=O)N[C@@H](CC2=CCCC2)C(=O)[C@@]2(C)CO2)cc1` [KZR-616, (2S,3R)-N-((S)-3-(Cyclopent-1-En-1-Yl)-1-((R)-2-Methyloxiran-2-yl)-1-Oxopropan-2-yl)-3-Hydroxy-3-(4-Methoxyphenyl)-2-((S)-2-(2-Morpholinoacetamido)Propanamido)Propenamide, reference compound]: the half-maximal inhibitory concentration (IC50) in assay [9] is 0.604 µM; in assay [8] (own assay) it was 0.403 ± 0.151 µM; in assay [1] (own assay), 0.026 ± 0.021 µM; in assay [10], 0.623 µM; in assay [11], 0.039 µM; in assay [4] (own assay), over 1 µM. Moreover, the IC50 in assay [14] is 0.688 µM; in assay [2] (own assay), 0.096 ± 0.032 µM; in [5] it was 0.338 ± 0.122 µM; in [3] (own assay), 0.426 ± 0.048 µM; in assay [12], 0.131 µM; in assay [13] (setting [17]), over 10.6 µM. In [6], the “Effect on secretion of cytokines” value was “reduced the secretion of IL-1, IL-6, IL-8, IL-10, and TNF-α to a significant degree”.

In the case of `COc1ccc(C[C@H](NC(=O)[C@H](C)NC(=O)CN2CCOCC2)C(=O)N[C@@H](CC2CCCC3CCCCC32)C(=O)[C@@]2(C)CO2)cc1` (stereo partly shown) [Lu-002i], the half-inhibitory concentration (IC50) in [11], in [14], in assay [12] and in assay [13] (setting [17]) was over 100 µM each time.

`CC(C)C[C@H](NC(=O)C(C)(C)NC(=O)c1ccccc1C(F)(F)F)B(O)O` [ML604440, reference compound]: the IC50 in assay [8] (own assay) was over 1 µM; in [1] (own assay), over 1 µM; in [11], over 1 µM; in assay [4] (own assay), over 1 µM; in assay [14] it was over 1 µM; in assay [2] (own assay) it was 0.008 ± 0.005 µM. In addition, the IC50 in assay [5] is over 1 µM; in assay [3] (own assay), over 1 µM; in assay [12] it was ~0.0125 µM and 0.0125 µM.

Turning to `COc1ccc(C[C@H](NC(=O)[C@H](C)NC(=O)CN2CCOCC2)C(=O)N[C@@H](Cc2ccccc2)C(=O)[C@@]2(C)CO2)cc1` [ONX-0914], the IC50 is 1.1 µM in [9], 0.054 µM in assay [14] and over 10 µM in [13] (setting [17]). Besides, the “Effect on secretion of cytokines” value in assay [6] is given as “Very similar result”.

Take `CC(C)C[C@H](NC(=O)[C@H](CCc1ccccc1)NC(=O)CN1CCOCC1)C(=O)N[C@@H](Cc1ccccc1)C(=O)N[C@@H](CC(C)C)C(=O)[C@@]1(C)CO1` [carfilzomib]: the IC50 in assay [13] (read-out: IC50 β1c, literature data) is 0.013 µM.
